Assay results as given in PubChem BioAssay (NCI).
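The compound was tested at five concentrations on cells cultured in 96-well plates, with a 48-hour exposure period. GI50 marks 50% less growth. TGI is the concentration that stops growth completely.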

Key:
Assay in all cases: NCI anticancer screen, dose series, 48 h
786-0 renal = system: 786-0 renal
A498 renal = system: A498 renal
A549 NSCLC = system: A549 NSCLC
ACHN renal = system: ACHN renal
BT-549 breast = system: BT-549 breast
CAKI-1 renal = system: CAKI-1 renal
CCRF-CEM leukemia = system: CCRF-CEM leukemia
COLO 205 colon = system: COLO 205 colon
DU-145 prostate = system: DU-145 prostate
EKVX NSCLC = system: EKVX NSCLC
HCC-2998 colon = system: HCC-2998 colon
HCT-116 colon = system: HCT-116 colon
HCT-15 colon = system: HCT-15 colon
HL-60(TB) leukemia = system: HL-60(TB) leukemia
HOP-62 NSCLC = system: HOP-62 NSCLC
HOP-92 NSCLC = system: HOP-92 NSCLC
HS 578T breast = system: HS 578T breast
HT29 colon = system: HT29 colon
K-562 leukemia = system: K-562 leukemia
KM12 colon = system: KM12 colon
LOX IMVI melanoma = system: LOX IMVI melanoma
M14 melanoma = system: M14 melanoma
MALME-3M melanoma = system: MALME-3M melanoma
MCF7 breast = system: MCF7 breast
MDA-MB-231 breast = system: MDA-MB-231 breast
MDA-MB-435 = system: MDA-MB-435
MOLT-4 leukemia = system: MOLT-4 leukemia
NCI-H226 lung = system: NCI-H226 lung
NCI-H23 lung = system: NCI-H23 lung
NCI-H460 lung = system: NCI-H460 lung
NCI/ADR-RES ovarian = system: NCI/ADR-RES ovarian
OVCAR-3 ovarian = system: OVCAR-3 ovarian
OVCAR-4 ovarian = system: OVCAR-4 ovarian
OVCAR-5 ovarian = system: OVCAR-5 ovarian
OVCAR-8 ovarian = system: OVCAR-8 ovarian
PC-3 prostate = system: PC-3 prostate
RPMI-8226 leukemia = system: RPMI-8226 leukemia
RXF 393 renal = system: RXF 393 renal
SF-268 CNS = system: SF-268 CNS
SF-295 CNS = system: SF-295 CNS
SF-539 CNS = system: SF-539 CNS
SK-MEL-28 melanoma = system: SK-MEL-28 melanoma
SK-MEL-5 melanoma = system: SK-MEL-5 melanoma
SK-OV-3 ovarian = system: SK-OV-3 ovarian
SN12C renal = system: SN12C renal
SNB-19 CNS = system: SNB-19 CNS
SNB-75 CNS = system: SNB-75 CNS
SR leukemia = system: SR leukemia
SW-620 colon = system: SW-620 colon
T-47D breast = system: T-47D breast
TK-10 renal = system: TK-10 renal
U251 CNS = system: U251 CNS
UACC-257 melanoma = system: UACC-257 melanoma
UACC-62 melanoma = system: UACC-62 melanoma

For `CCOC(=O)C1=C(C)N(c2ccc(OC)cc2)C2(O)C=CC(=O)C3C(=O)N(c4ccccc4)C(=O)C132` (stereo not drawn), the GI50 (786-0 renal) was 2.28 µM, the TGI (786-0 renal) was 5.34 µM and the GI50 (A498 renal) was 11.4 µM. The TGI (A498 renal) was 23.5 µM, the GI50 (A549 NSCLC) was 3.29 µM and the TGI (A549 NSCLC) was 13 µM. For the same molecule, the GI50 (ACHN renal) was 1.94 µM, the TGI (ACHN renal) was 3.93 µM and the GI50 (BT-549 breast) was 1.93 µM. For the same molecule, the TGI (BT-549 breast) was 4.15 µM, the GI50 (CAKI-1 renal) was 3.52 µM and the TGI (CAKI-1 renal) was 10.1 µM. The GI50 (CCRF-CEM leukemia) was 1.67 µM, the TGI (CCRF-CEM leukemia) was 13 µM and the GI50 (COLO 205 colon) was 1.9 µM. It also gave a TGI (COLO 205 colon) of 3.83 µM, a GI50 (DU-145 prostate) of 1.82 µM and a TGI (DU-145 prostate) of 4.7 µM. The GI50 (EKVX NSCLC) was 2.71 µM, the TGI (EKVX NSCLC) was 12.1 µM and the GI50 (HCC-2998 colon) was 1.71 µM. The TGI (HCC-2998 colon) was 3.19 µM, the GI50 (HCT-116 colon) was 1.17 µM and the TGI (HCT-116 colon) was 2.48 µM. For the same molecule, the GI50 (HCT-15 colon) was 1.95 µM, the TGI (HCT-15 colon) was 6.5 µM and the GI50 (HL-60(TB) leukemia) was 2.34 µM. The TGI (HL-60(TB) leukemia) was 5.82 µM, the GI50 (HOP-62 NSCLC) was 3.72 µM and the TGI (HOP-62 NSCLC) was 10.3 µM. The GI50 (HOP-92 NSCLC) was 2.78 µM, the TGI (HOP-92 NSCLC) was 7.97 µM and the GI50 (HS 578T breast) was 3.89 µM. It also gave a TGI (HS 578T breast) of 29.9 µM, a GI50 (HT29 colon) of 2.04 µM and a TGI (HT29 colon) of 3.75 µM. The GI50 (K-562 leukemia) was 2.68 µM, the TGI (K-562 leukemia) was over 100 µM and the GI50 (KM12 colon) was 1.84 µM. The TGI (KM12 colon) was 3.41 µM, the GI50 (LOX IMVI melanoma) was 1.55 µM and the TGI (LOX IMVI melanoma) was 2.96 µM. The GI50 (M14 melanoma) was 2.2 µM, the TGI (M14 melanoma) was 5.39 µM and the GI50 (MALME-3M melanoma) was 2.04 µM. It also gave a TGI (MALME-3M melanoma) of 3.83 µM, a GI50 (MCF7 breast) of 2.6 µM and a TGI (MCF7 breast) of 11.1 µM. For the same molecule, the GI50 (MDA-MB-231 breast) was 3.19 µM, the TGI (MDA-MB-231 breast) was 7.77 µM and the GI50 (MDA-MB-435) was 2.72 µM. It also gave a TGI (MDA-MB-435) of 7.47 µM, a GI50 (MOLT-4 leukemia) of 2.42 µM and a TGI (MOLT-4 leukemia) of 5.66 µM. The GI50 (NCI-H226 lung) was 2.56 µM, the TGI (NCI-H226 lung) was 5.18 µM and the GI50 (NCI-H23 lung) was 2.34 µM. It also gave a TGI (NCI-H23 lung) of 6.66 µM, a GI50 (NCI-H460 lung) of 2.08 µM and a TGI (NCI-H460 lung) of 5.25 µM. For the same molecule, the GI50 (NCI/ADR-RES ovarian) was 3.57 µM, the TGI (NCI/ADR-RES ovarian) was 22.3 µM and the GI50 (OVCAR-3 ovarian) was 1.89 µM. The TGI (OVCAR-3 ovarian) was 3.66 µM, the GI50 (OVCAR-4 ovarian) was 2.21 µM and the TGI (OVCAR-4 ovarian) was 5.89 µM. The GI50 (OVCAR-5 ovarian) was 4.08 µM, the TGI (OVCAR-5 ovarian) was 22.8 µM and the GI50 (OVCAR-8 ovarian) was 3.58 µM. For the same molecule, the TGI (OVCAR-8 ovarian) was 17.3 µM, the GI50 (PC-3 prostate) was 2.89 µM and the TGI (PC-3 prostate) was 10.1 µM. It also gave a GI50 (RPMI-8226 leukemia) of 1.95 µM, a TGI (RPMI-8226 leukemia) of 5.15 µM and a GI50 (RXF 393 renal) of 1.81 µM. The TGI (RXF 393 renal) was 3.42 µM, the GI50 (SF-268 CNS) was 3.51 µM and the TGI (SF-268 CNS) was 18.4 µM. For the same molecule, the GI50 (SF-295 CNS) was 15.1 µM, the TGI (SF-295 CNS) was 28.6 µM and the GI50 (SF-539 CNS) was 2.27 µM. It also gave a TGI (SF-539 CNS) of 5.6 µM, a GI50 (SK-MEL-28 melanoma) of 1.86 µM and a TGI (SK-MEL-28 melanoma) of 4.29 µM. It also gave a GI50 (SK-MEL-5 melanoma) of 1.51 µM, a TGI (SK-MEL-5 melanoma) of 3.05 µM and a GI50 (SK-OV-3 ovarian) of 9.92 µM. The TGI (SK-OV-3 ovarian) was 21.7 µM, the GI50 (SN12C renal) was 4.09 µM and the TGI (SN12C renal) was 12.5 µM. The GI50 (SNB-19 CNS) was 4.74 µM, the TGI (SNB-19 CNS) was 16.8 µM and the GI50 (SNB-75 CNS) was 4.16 µM. For the same molecule, the TGI (SNB-75 CNS) was 13.8 µM, the GI50 (SR leukemia) was 1.59 µM and the TGI (SR leukemia) was 5.26 µM. For the same molecule, the GI50 (SW-620 colon) was 1.88 µM, the TGI (SW-620 colon) was 3.83 µM and the GI50 (T-47D breast) was 1.79 µM. The TGI (T-47D breast) was 6.08 µM, the GI50 (TK-10 renal) was 3.48 µM and the TGI (TK-10 renal) was 9.05 µM. It also gave a GI50 (U251 CNS) of 2.14 µM, a TGI (U251 CNS) of 5.21 µM and a GI50 (UACC-257 melanoma) of 2.78 µM. For the same molecule, the TGI (UACC-257 melanoma) was 11 µM, the GI50 (UACC-62 melanoma) was 2.41 µM and the TGI (UACC-62 melanoma) was 5.47 µM.
